Reference: PubChem BioAssay AID256 (DTP/NCI, 2004)
Values joined by “and” are separate entries in the source; they are usually repeats but may differ in a detail not shown here. Identical values can stand only once. Toxic doses and inconclusive results are not listed. How the source made its calls: active means survival T/C of 150% or more; inactive means T/C below 125% in these data.

System: CD2F1 mice, L1210 leukemia ip, survival T/C
Assay: NCI In Vivo Anticancer Drug Screen. Data for tumor model L1210 Leukemia (intraperitoneal) in CD2F1 (CDF1) mice
Conditions: higher = longer survival
Method in brief: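 Transplantable tumor in mice; compound-treated vs vehicle-treated groups. Read-out = treated/control ratio of the measured endpoint.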

[1] = endpoint: mean survival time, dose: 100.0 mg/kg/injection, schedule: Q04DX003 (ip), vehicle: saline with Tween-80
[2] = endpoint: mean survival time, dose: 200.0 mg/kg/injection, schedule: Q04DX003 (ip), vehicle: saline with Tween-80

Measured: T/C

N[C@@H](Cc1ccc(N(CCCl)CCCl)cc1)C(=O)O
inactive: endpoint: mean survival time, dose: 0.25 mg/kg/injection, schedule: Q01DX009 (ip), vehicle: Klucel (hydroxypropylcellulose) (HPC) 106 % of control and 108 % of control | endpoint: mean survival time, dose: 0.25 mg/kg/injection, schedule: Q01DX009 (ip), vehicle: saline 106 % of control | endpoint: mean survival time, dose: 0.25 mg/kg/injection, schedule: Q04DX003 (ip), vehicle: saline 113 % of control | endpoint: mean survival time, dose: 0.5 mg/kg/injection, schedule: Q01DX009 (ip), vehicle: water 113 % of control and 112 % of control | endpoint: mean survival time, dose: 0.5 mg/kg/injection, schedule: Q04DX003 (ip), vehicle: saline 118 % of control | endpoint: mean survival time, dose: 0.75 mg/kg/injection, schedule: Q01DX009 (ip), vehicle: Klucel (hydroxypropylcellulose) (HPC) 115 % of control | endpoint: mean survival time, dose: 1.0 mg/kg/injection, schedule: Q01DX009 (ip), vehicle: water 115 % of control and 123 % of control | endpoint: mean survival time, dose: 1.0 mg/kg/injection, schedule: Q## X010 (oral), vehicle: saline 118 % of control | endpoint: mean survival time, dose: 2.0 mg/kg/injection, schedule: Q01DX001 (ip), vehicle: Klucel (hydroxypropylcellulose) (HPC) 118 % of control | endpoint: mean survival time, dose: 2.0 mg/kg/injection, schedule: Q01DX001 (ip), vehicle: other 108 % of control | endpoint: mean survival time, dose: 2.0 mg/kg/injection, schedule: Q01DX001 (ip), vehicle: saline with Tween-80 122 % of control | endpoint: mean survival time, dose: 2.0 mg/kg/injection, schedule: Q01DX005 (oral), vehicle: saline 121 % of control | endpoint: mean survival time, dose: 2.0 mg/kg/injection, schedule: Q## X016 (oral), vehicle: saline 103 % of control | endpoint: mean survival time, dose: 4.0 mg/kg/injection, schedule: Q01DX001 (ip), vehicle: Klucel (hydroxypropylcellulose) (HPC) 119 % of control | endpoint: mean survival time, dose: 4.0 mg/kg/injection, schedule: Q01DX001 (ip), vehicle: other 121 % of control | endpoint: mean survival time, dose: 4.0 mg/kg/injection, schedule: Q## X016 (oral), vehicle: saline 104 % of control | endpoint: mean survival time, dose: 8.0 mg/kg/injection, schedule: Q01DX009 (ip), vehicle: water 120 % of control and 108 % of control | endpoint: mean survival time, dose: 8.0 mg/kg/injection, schedule: Q## X010 (oral), vehicle: saline 96 % of control | endpoint: mean survival time, dose: 32.0 mg/kg/injection, schedule: Q01DX001 (ip), vehicle: Klucel (hydroxypropylcellulose) (HPC) 115 % of control | endpoint: median survival time, dose: 10.0 mg/kg/injection, schedule: Q01DX001 (ip), vehicle: Klucel (hydroxypropylcellulose) (HPC) 118 % of control | endpoint: median survival time, dose: 15.0 mg/kg/injection, schedule: Q01DX009 (ip), vehicle: saline 114 % of control and 105 % of control
active: endpoint: mean survival time, dose: 2.0 mg/kg/injection, schedule: Q01DX007 (ip), vehicle: saline 166 % of control | endpoint: mean survival time, dose: 2.0 mg/kg/injection, schedule: Q01DX009 (ip), vehicle: water 153 % of control | endpoint: mean survival time, dose: 2.5 mg/kg/injection, schedule: Q01DX009 (ip), vehicle: saline 166 % of control | endpoint: mean survival time, dose: 2.5 mg/kg/injection, schedule: Q04DX003 (ip), vehicle: saline 153 % of control | endpoint: mean survival time, dose: 3.0 mg/kg/injection, schedule: Q01DX009 (ip), vehicle: Klucel (hydroxypropylcellulose) (HPC) 164 % of control | endpoint: mean survival time, dose: 4.0 mg/kg/injection, schedule: Q01DX007 (ip), vehicle: saline 168 % of control | endpoint: mean survival time, dose: 4.0 mg/kg/injection, schedule: Q01DX009 (ip), vehicle: water 155 % of control and 208 % of control | endpoint: mean survival time, dose: 4.0 mg/kg/injection, schedule: Q03DX003 (ip), vehicle: saline 170 % of control | endpoint: mean survival time, dose: 4.0 mg/kg/injection, schedule: Q## X010 (ip), vehicle: saline 160 % of control | endpoint: mean survival time, dose: 4.5 mg/kg/injection, schedule: Q04DX003 (ip), vehicle: saline 152 % of control | endpoint: mean survival time, dose: 5.0 mg/kg/injection, schedule: Q01DX009 (ip), vehicle: saline 198 % of control | endpoint: mean survival time, dose: 6.0 mg/kg/injection, schedule: Q04DX003 (ip), vehicle: saline 158 % of control | endpoint: mean survival time, dose: 7.5 mg/kg/injection, schedule: Q01DX001 (ip), vehicle: saline 158 % of control | endpoint: mean survival time, dose: 7.5 mg/kg/injection, schedule: Q01DX009 (ip), vehicle: saline 198 % of control | endpoint: mean survival time, dose: 7.5 mg/kg/injection, schedule: Q04DX003 (ip), vehicle: saline 198 % of control and 266 % of control | endpoint: mean survival time, dose: 8.0 mg/kg/injection, schedule: Q01DX001 (ip), vehicle: DMSO 180 % of control | endpoint: mean survival time, dose: 8.0 mg/kg/injection, schedule: Q01DX001 (ip), vehicle: Klucel (hydroxypropylcellulose) (HPC) 180 % of control | endpoint: mean survival time, dose: 8.0 mg/kg/injection, schedule: Q01DX001 (ip), vehicle: saline with Tween-80 165 % of control | endpoint: mean survival time, dose: 8.0 mg/kg/injection, schedule: Q03DX003 (ip), vehicle: saline 211 % of control | endpoint: mean survival time, dose: 9.0 mg/kg/injection, schedule: Q04DX003 (ip), vehicle: saline 217 % of control | endpoint: mean survival time, dose: 12.0 mg/kg/injection, schedule: Q04DX003 (ip), vehicle: saline 240 % of control | endpoint: mean survival time, dose: 16.0 mg/kg/injection, schedule: Q01DX001 (ip), vehicle: DMSO 221 % of control | endpoint: mean survival time, dose: 16.0 mg/kg/injection, schedule: Q01DX001 (ip), vehicle: Klucel (hydroxypropylcellulose) (HPC) 189 % of control | endpoint: mean survival time, dose: 16.0 mg/kg/injection, schedule: Q01DX001 (ip), vehicle: saline with Tween-80 265 % of control | endpoint: mean survival time, dose: 16.0 mg/kg/injection, schedule: Q## X016 (oral), vehicle: saline 164 % of control | endpoint: mean survival time, dose: 20.0 mg/kg/injection, schedule: Q01DX001 (ip), vehicle: saline 303 % of control and 427 % of control | endpoint: mean survival time, dose: 32.0 mg/kg/injection, schedule: Q01DX001 (ip), vehicle: other 217 % of control | endpoint: mean survival time, dose: 32.0 mg/kg/injection, schedule: Q01DX001 (ip), vehicle: saline with Tween-80 183 % of control | endpoint: median survival time, dose: 1.0 mg/kg/injection, schedule: Q01DX009 (ip), vehicle: saline 151 % of control | endpoint: median survival time, dose: 1.25 mg/kg/injection, schedule: Q01DX009 (ip), vehicle: saline 170 % of control | endpoint: median survival time, dose: 1.5 mg/kg/injection, schedule: Q04DX003 (ip), vehicle: Klucel (hydroxypropylcellulose) (HPC) 191 % of control | endpoint: median survival time, dose: 2.0 mg/kg/injection, schedule: Q01DX005 (ip), vehicle: saline 152 % of control | endpoint: median survival time, dose: 2.0 mg/kg/injection, schedule: Q01DX009 (ip), vehicle: saline 176 % of control | endpoint: median survival time, dose: 2.5 mg/kg/injection, schedule: Q01DX001 (ip), vehicle: Klucel (hydroxypropylcellulose) (HPC) 150 % of control and 195 % of control | endpoint: median survival time, dose: 2.5 mg/kg/injection, schedule: Q01DX009 (ip), vehicle: saline 205 % of control | endpoint: median survival time, dose: 3.0 mg/kg/injection, schedule: Q04DX003 (ip), vehicle: Klucel (hydroxypropylcellulose) (HPC) 182 % of control | endpoint: median survival time, dose: 3.75 mg/kg/injection, schedule: Q01DX009 (ip), vehicle: saline 158 % of control | endpoint: median survival time, dose: 4.0 mg/kg/injection, schedule: Q01DX005 (ip), vehicle: saline 176 % of control | endpoint: median survival time, dose: 4.0 mg/kg/injection, schedule: Q01DX009 (ip), vehicle: saline 227 % of control | endpoint: median survival time, dose: 5.0 mg/kg/injection, schedule: Q01DX009 (ip), vehicle: saline 357 % of control | endpoint: median survival time, dose: 8.0 mg/kg/injection, schedule: Q01DX005 (ip), vehicle: saline 211 % of control | endpoint: median survival time, dose: 8.0 mg/kg/injection, schedule: Q01DX009 (ip), vehicle: saline 234 % of control | endpoint: median survival time, dose: 12.0 mg/kg/injection, schedule: Q01DX001 (ip), vehicle: saline 183 % of control and 193 % of control

O=C(O)CCCCSc1ncnc2nc[nH]c12
inactive: endpoint: mean survival time, dose: 100.0 mg/kg/injection, schedule: Q01DX009 (ip), vehicle: saline with Tween-80 90 % of control | endpoint: mean survival time, dose: 200.0 mg/kg/injection, schedule: Q01DX009 (ip), vehicle: saline with Tween-80 95 % of control | endpoint: mean survival time, dose: 400.0 mg/kg/injection, schedule: Q01DX009 (ip), vehicle: saline with Tween-80 102 % of control

CO[C@@]12[C@@H]3N[C@@H]3CN1C1=C(C(=O)C(Nc3ccc(S)cc3)=C(C)C1=O)[C@@H]2COC(N)=O
inactive: endpoint: mean survival time, dose: 1.5 mg/kg/injection, schedule: Q01DX001 (ip), vehicle: water 108 % of control | endpoint: mean survival time, dose: 3.0 mg/kg/injection, schedule: Q01DX001 (ip), vehicle: water 104 % of control | endpoint: mean survival time, dose: 6.0 mg/kg/injection, schedule: Q01DX001 (ip), vehicle: water 97 % of control | endpoint: mean survival time, dose: 12.0 mg/kg/injection, schedule: Q01DX001 (ip), vehicle: water 98 % of control | endpoint: mean survival time, dose: 16.7 mg/kg/injection, schedule: Q01DX001 (ip), vehicle: distilled water + Tween-80 92 % of control | endpoint: mean survival time, dose: 24.0 mg/kg/injection, schedule: Q01DX001 (ip), vehicle: distilled water + Tween-80 102 % of control | endpoint: mean survival time, dose: 24.0 mg/kg/injection, schedule: Q01DX001 (ip), vehicle: water 98 % of control | endpoint: mean survival time, dose: 34.2 mg/kg/injection, schedule: Q01DX001 (ip), vehicle: distilled water + Tween-80 104 % of control | endpoint: mean survival time, dose: 48.9 mg/kg/injection, schedule: Q01DX001 (ip), vehicle: distilled water + Tween-80 96 % of control

CCCCCCCCCCCCCCCCS(=O)(=O)CCO
inactive: [1] 90 % of control | [2] 88 % of control | endpoint: mean survival time, dose: 400.0 mg/kg/injection, schedule: Q04DX003 (ip), vehicle: saline with Tween-80 90 % of control

O/N=C\c1cccc2ccccc12
inactive: [1] 97 % of control | [2] 101 % of control
